Measurements: patent publication US12441976B2, “Process for reducing the activity of microbial contamination in a yeast medium” (Lallemand Hungary Liquidity Management LLC, priority 2020, dated 2025)

Tested on: contaminating wild-type microbial cells (obtained from a commercial plant)
Test: laboratory scale model: antimicrobial treatment of pasteurized corn mash, change in pH after 12 hours
Type: cell-based
Method: A laboratory model has been developed to characterize the microbial activity of various components (in isolation and in combination). Briefly, cycloheximide and glucose are added to a pasteurized corn mash (step 010). At step 020, the pasteurized mash was supplemented with an antimicrobial composition and submitted to an acidic treatment. More specifically, at substep 021, an antimicrobial composition was added to the pasteurized mash. Then, at substep 022, contaminating wild-type microbial cells (obtained from a commercial plant) were added. Afterwards, at substep 023, the mash was submitted to an acidic treatment with sulfuric acid. The mash was held in such acidic conditions for 30 minutes at 33° C. (step 030). A base was then added to the acidic mash to increase the pH of the mixture (to a level suitable for the growth and metabolic activity of yeasts, step 040). The neutralized mash obtained after step 040 was maintained at 12 hours at 33° C. (step 050). Step 050 was used to allow, if any, the bacterial growth to measure the antimicrobial efficiency of the different treatments. At step 060, the pH and the presence of different metabolites (using HPLC) were determined.

O=CO [formate]
inhibition, in words (organic acid alone, 0.1% w/v, pH 3.2): greater inhibition than acetate or D/L lactate only

nisin
antimicrobial effectiveness, in words (100 ppm nisin added after the pH was raised to 5.5): more effective than adding nisin as a part of the antimicrobial blend
